Measured values as given in PubChem BioAssay (NCI).
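Interpolation was linear, between the two tested concentrations surrounding the appropriate level; five concentrations were tested over 48 hours in 96-well plates. The concentration for 50% growth inhibition is given as GI50. TGI: total growth inhibition.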

Legend:
Test in all cases: NCI anticancer screen, dose series, 48 h
SF-295 CNS = tested on: SF-295 CNS
OVCAR-8 ovarian = tested on: OVCAR-8 ovarian
NCI-H226 lung = tested on: NCI-H226 lung
HL-60(TB) leukemia = tested on: HL-60(TB) leukemia
HT29 colon = tested on: HT29 colon
CAKI-1 renal = tested on: CAKI-1 renal
A498 renal = tested on: A498 renal
DU-145 prostate = tested on: DU-145 prostate
HCT-116 colon = tested on: HCT-116 colon
TK-10 renal = tested on: TK-10 renal

Compound	TGI (SF-295 CNS) [µM]	TGI (OVCAR-8 ovarian) [µM]	TGI (NCI-H226 lung) [µM]	TGI (HL-60(TB) leukemia) [µM]	TGI (HT29 colon) [µM]	TGI (CAKI-1 renal) [µM]	TGI (A498 renal) [µM]	TGI (DU-145 prostate) [µM]	TGI (HCT-116 colon) [µM]	TGI (TK-10 renal) [µM]	GI50 (TK-10 renal) [µM]	GI50 (SF-295 CNS) [µM]	GI50 (OVCAR-8 ovarian) [µM]	GI50 (NCI-H226 lung) [µM]	GI50 (HL-60(TB) leukemia) [µM]	GI50 (HT29 colon) [µM]	GI50 (CAKI-1 renal) [µM]	GI50 (A498 renal) [µM]	GI50 (HCT-116 colon) [µM]	GI50 (DU-145 prostate) [µM]
CCc1ccccc1NNc1cc(=O)[nH]c(=O)[nH]1	36.2	51.6	35	> 100	39.3	21.5	45.8	> 100	31.1											
C=CCOCn1cc(C)c(=O)[nH]c1=O	> 100	> 100	> 100	> 100	> 100	> 100	> 100	> 100	> 100	> 100										
O=C(OCC(Cl)(Cl)Cl)O[C@@H]1CCCC1(c1ccccc1)c1ccccc1	> 100		> 100		> 100	> 100		> 100	> 100	> 100										
Cc1cc(=O)[nH]c(NN2C(Cl)C(=O)C2c2cccc(Cl)c2)n1 (stereo not given)		> 100		40.4	76.8					> 100										
O=C(NNc1nc(-c2ccccc2)cs1)C(F)(F)F	> 100	> 100	> 100	> 100	> 100	> 100	88.2	> 100	> 100											
CCOC(=O)N(c1ccccc1)N(CC)C(=O)/C(C)=N/Nc1ccc([N+](=O)[O-])cc1	32.3	32.6	37.5	35.8	31		28		27.1											
COc1cc2nc(-c3cccs3)[nH]c(=O)c2cc1OC	> 100	> 100	> 100	> 100	> 100	> 100	> 100	> 100	> 100	> 100										
Cc1ccc(NC(=O)C(=O)CC(=O)c2sc(Nc3c(C)cccc3C)nc2C)cc1C	> 100	> 100	> 100	> 100	> 100	> 100		> 100	> 100	> 100										
N#C/C(=C/NC(=S)c1ccncc1)C(N)=O	> 100	> 100	> 100	> 100	> 100	> 100	> 100	> 100	> 100	> 100										
O=c1[nH]cnc2c1nnn2CCCCCCCCCCCCn1nnc2c(=O)[nH]cnc21	48.4	> 86.8	63.5	> 100	> 100	> 100	53.6	> 100	> 84.1	50.7										
COc1ccc(C(C2=C(O)COC2=O)c2cc3c(cc2O)OCO3)cc1OC (stereo not given)	> 100	> 100	> 100	> 100	> 100	> 100	> 100	> 100	> 100	> 100										
S=C(Nc1ccc2cn[nH]c2c1)Nc1ccc2cn[nH]c2c1	> 100	> 100	> 100		> 100	> 100	> 100	> 100	> 100	> 100										
CC(C)(C)OC(=O)NCCCCC(NC(=O)c1ccccc1)C(N)=O (stereo not given)	> 100	> 100			> 100	> 100	> 100	> 100	> 100	> 100										
CCOC(=O)C1=C(C)N(c2ccc(OC)cc2)C2(O)C=CC(=O)C3=C(O)c4ccccc4C(=O)C312 (stereo not given)	29.3	81.1		21.6	32.7	26.5	27	28.4	23.4	27.4										
C[Si](C)(c1ccccc1)[C@H]1CCCC=C1CCNC1c2ccccc2CCc2ccccc21	> 100	> 100	> 100		> 100	> 100	> 100	> 100	> 100	> 100										
O=C1Nc2ccccc2Nc2ccncc21	> 100	> 100	> 100	> 100	> 100	> 100	> 100		> 100											
CC(=O)[CH-]C(=O)c1ccccc1.CC(=O)[CH-]C(=O)c1ccccc1.C[C@]12CCC(=O)C=C1CC[C@@H]1C2CC[C@@]2(C)C1CC[C@]2(C)[O-].C[C@]12CCC(=O)C=C1CC[C@@H]1C2CC[C@@]2(C)C1CC[C@]2(C)[O-].Cl.[Ti+4] (stereo not given in full)	57.3	77.5	56.1	13.1	76	38.4	31.1		> 100	> 100	34.2	18.4	20.4	14.4	2.87	16.3	13.3	15.3	22.2	
COc1cc(-c2ccccc2N)c2cccnc2c1OC	7.18		26.6	16.5	16.3	10.2	27.2	10.5	11.9	23.7										
C[C@@H]1S[C@H](c2c(Cl)cccc2Cl)N2Cc3ccccc3N=C12	> 100			> 100		> 100	> 100	> 100	> 100	> 100										
CCN(CC)c1ccc2cc(C(=O)Nc3ccccn3)c(=N)oc2c1		> 100	> 100	> 100	> 100	> 100	> 100	> 100	> 100											
COc1ccc(/C=C/C2=NN(c3cccc(S(=O)(=O)O)c3)C3(C2)SCC(=O)N3c2nc3ccccc3s2)cc1 (stereo not given)		> 100	> 100	> 100	> 100	> 100	> 100	> 100	> 100	> 100										
Oc1[nH]c2ccccc2c1/C=c1/cc2c(c(-c3ccc(F)cc3)n1)=Nc1ccccc1-2			10.7	0.994	1.43	5.05	1.85	2.03	2.24	3.71	1.44			1.52	0.282	0.384	1.29	0.309	1.01	0.422
